According to ChEMBL document CHEMBL1201862, “PubChem BioAssay data set” (2004):
Activity calls are given as the source filed them.

Assays:
HeLa = experiment: HeLa cell cytotoxicity, dose response, cytotoxicity control, ATP luminescence, cherry-pick samples (AID 687004); format: functional, cell-based; settings: Homo sapiens
HEK293 = experiment: HEK293T cell cytotoxicity, dose response, cytotoxicity control, ATP luminescence, cherry-pick samples (AID 687005); format: functional, cell-based; settings: Homo sapiens;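 also: cells exposed to compound for 48 hours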
[1] = HEK293 Cytotoxicity Assay Measured in Cell-Based System Using Plate Reader - 7071-01_Inhibitor_Dose_CherryPick_Activity_Set2.; format: functional
[2] = NIH/3T3 fibroblast cytotoxicity, dose response, cytotoxicity control, cell-based, plate reader, dry powder, set 2 (AID 652280); format: functional; settings: NIH3T3
[3] = NIH/3T3 fibroblast cytotoxicity, dose response, cytotoxicity control, cell-based, dry powder samples (AID 651844); format: functional; settings: NIH3T3
[4] = target: Potassium channel subfamily K member 9 (Homo sapiens, UniProt Q9NPC2); experiment: TASK3 (KCNK9) channel inhibitors, thallium flux, SAR follow-up, selectivity assay for TASK1 inhibitor project, cell-based, FluxOR thallium flux, concentration-response (AID 652211); format: functional;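 also: potency is for inhibitors of the channel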
[5] = target: Potassium channel subfamily K member 3 (Rattus norvegicus, UniProt O54912); experiment: SAR analysis for the identification of selective inhibitors of the two-pore domain potassium channel TASK1(KCNK3):Automated Electrophysiology.; format: functional
[6] = HepG2 cell cytotoxicity, dose response, cytotoxicity control, cherry-picks, set 5 (AID 1053118); format: functional, cell-based
[7] = inhibitors of fibronectin matrix deposition, dose response, AH1F cells, Alexa488-FN fluorescence, cherry-picks (AID 1035475); format: functional, cell-based
[8] = HEK293 cell cytotoxicity, dose response, cytotoxicity control, cherry-picks, set 5 (AID 1053117); format: functional, cell-based
[9] = A375 melanoma cell viability loss, dose response, counter-screen for MITF inhibitor project, CellTiter-Glo luminescence, dry powder, set 4 (AID 624364); format: functional, cell-based; settings: A-375;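 also: A375 melanoma cells are MITF independent so this is a counter screen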
[10] = A375 melanoma cell cytotoxicity, dose response, counter-screen for MITF inhibitor project, CellTiter-Glo luminescence, dry powder, set 2 (AID 624489); format: functional, cell-based; settings: A-375;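 also: actives are compounds lowering A375 viability meaning general cytotoxicity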
[11] = T. cruzi growth inhibition in host cells, dose response, cell-based, plate reader, dry powder, set 2 (AID 652275); format: functional
[12] = target: Potassium channel subfamily K member 3 (Homo sapiens, UniProt O14649); experiment: TASK1 (KCNK3) potassium channel inhibitors, SAR follow-up, CHO cells, FluxOR thallium flux (AID 652212); format: functional
[13] = HEK293 cell cytotoxicity, dose response, cytotoxicity control, ATP luminescence, dry powder, Set6 (AID 743142); format: functional, cell-based
[14] = A549 cell cytotoxicity, dose response, cytotoxicity control, CellTiter-Glo luminescence, dry powder, set 3 (AID 743146); format: functional, cell-based
[15] = HepG2 cell cytotoxicity, dose response, cytotoxicity control, ATP luminescence, cherry-pick, activator set 2 (AID 1053143); format: functional, cell-based
[16] = target: T1, Nuclear receptor subfamily 0 group B member 1 (Homo sapiens, UniProt P51843); format: functional, cell-based
T1 sequence (P51843 whole entry): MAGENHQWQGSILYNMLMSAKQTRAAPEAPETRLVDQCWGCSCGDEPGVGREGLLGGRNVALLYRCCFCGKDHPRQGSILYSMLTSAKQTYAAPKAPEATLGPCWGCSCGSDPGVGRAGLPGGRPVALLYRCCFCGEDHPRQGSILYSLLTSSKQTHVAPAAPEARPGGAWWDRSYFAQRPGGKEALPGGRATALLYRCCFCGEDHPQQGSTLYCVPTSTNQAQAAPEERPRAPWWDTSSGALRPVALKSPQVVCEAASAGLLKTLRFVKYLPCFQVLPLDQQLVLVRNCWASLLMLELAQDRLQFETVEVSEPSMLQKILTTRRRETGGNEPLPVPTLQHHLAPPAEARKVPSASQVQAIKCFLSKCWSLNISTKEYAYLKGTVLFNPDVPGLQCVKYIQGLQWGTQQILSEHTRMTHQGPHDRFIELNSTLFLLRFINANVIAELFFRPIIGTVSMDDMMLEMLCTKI

[17] = CFTR ΔF508 corrector activity in bronchial cells, dose response, human bronchial epithelial cells, plate reader, cherry-pick, two tests (AID 743267); format: functional, cell-based
[18] = target: T1, Nuclear receptor subfamily 0 group B member 1; experiment: Luminescence-based cell-based high throughput dose response assay for inhibitors of the orphan nuclear receptor subfamily 0, group B, member 1 (DAX1; NR0B1). [Related pubchem assays (depositor defined):AID504766, AID504790]; format: functional
[19] = HepG2 cell cytotoxicity, dose response, cytotoxicity control, CellTiter-Glo luminescence, cherry-pick, set 2 (AID 743395); format: functional

Chain of Potassium channel subfamily K member 3 (Rattus norvegicus, UniProt O54912) (O54912 whole entry, the tested form may be a part): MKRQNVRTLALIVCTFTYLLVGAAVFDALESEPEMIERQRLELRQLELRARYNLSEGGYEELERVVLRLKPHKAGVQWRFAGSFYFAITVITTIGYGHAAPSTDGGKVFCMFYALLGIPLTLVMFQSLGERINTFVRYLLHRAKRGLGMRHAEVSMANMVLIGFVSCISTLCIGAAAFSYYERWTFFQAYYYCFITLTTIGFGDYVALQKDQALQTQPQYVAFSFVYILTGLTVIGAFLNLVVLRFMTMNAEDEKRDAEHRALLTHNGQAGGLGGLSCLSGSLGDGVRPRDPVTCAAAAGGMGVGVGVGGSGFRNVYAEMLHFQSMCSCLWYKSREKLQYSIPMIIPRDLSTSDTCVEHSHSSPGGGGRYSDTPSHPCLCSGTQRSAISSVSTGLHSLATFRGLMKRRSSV
Chain of Potassium channel subfamily K member 3 (Homo sapiens, UniProt O14649) (O14649 whole entry): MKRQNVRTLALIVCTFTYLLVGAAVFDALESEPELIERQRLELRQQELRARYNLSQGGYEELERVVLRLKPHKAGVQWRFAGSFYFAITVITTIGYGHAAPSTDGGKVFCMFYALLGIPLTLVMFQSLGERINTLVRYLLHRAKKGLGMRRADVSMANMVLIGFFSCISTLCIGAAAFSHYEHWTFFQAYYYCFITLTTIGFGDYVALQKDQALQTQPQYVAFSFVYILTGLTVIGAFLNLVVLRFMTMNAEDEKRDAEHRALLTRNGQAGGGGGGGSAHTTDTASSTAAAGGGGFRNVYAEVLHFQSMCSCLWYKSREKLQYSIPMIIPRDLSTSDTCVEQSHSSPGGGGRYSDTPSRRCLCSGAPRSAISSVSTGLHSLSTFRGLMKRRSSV
Chain of Potassium channel subfamily K member 9 (Q9NPC2 whole entry, the tested form may be a part): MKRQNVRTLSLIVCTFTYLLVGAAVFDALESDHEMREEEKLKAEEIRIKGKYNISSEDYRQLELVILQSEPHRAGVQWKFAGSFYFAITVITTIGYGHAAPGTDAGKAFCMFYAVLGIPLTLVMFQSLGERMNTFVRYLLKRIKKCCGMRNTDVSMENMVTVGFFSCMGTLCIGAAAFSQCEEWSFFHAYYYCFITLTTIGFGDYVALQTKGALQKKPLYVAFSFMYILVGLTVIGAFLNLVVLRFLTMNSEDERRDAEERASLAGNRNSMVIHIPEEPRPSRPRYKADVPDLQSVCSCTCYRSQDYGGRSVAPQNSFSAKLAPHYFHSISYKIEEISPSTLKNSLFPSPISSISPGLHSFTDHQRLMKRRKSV

CC(C)CC#Cc1ccc2c(c1)O[C@H](CN(C)C(=O)C1CCC1)[C@@H](C)CN([C@@H](C)CO)S2(=O)=O
AC50 (HeLa): > 52 µM (inactive)
AC50 (HEK293): 15.8 µM (active)
AC50 [1]: 15.8 µM (active)

CC(C)N1C[C@H](C)[C@@H](CN(C)Cc2ccc(Oc3ccccc3)cc2)Oc2c(NC(=O)C3CCN(C)CC3)cccc2C1=O
AC50 [2]: 8.58 µM (active)
AC50 [3]: 8.58 µM (active)

COc1ccccc1C(=O)Nc1cccc(NC(=O)c2ccccc2OC)c1
IC50 [4]: 3.62 µM (active)
IC50 [5]: 0.03 µM (active)

O=S(=O)(c1ccccc1F)N1CC[C@@H]2[C@@H](CO)Nc3ccc(-c4cccc(F)c4)cc3[C@@H]21
AC50 [6]: 32.6 µM (active)
AC50 [7]: 39.9 µM (active)
AC50 [8]: > 52 µM (inactive)

C=CCNC1=C(N2CCN(C)CC2)C(=O)c2ccccc2C1=O
AC50 [9]: 34.4 µM (active)
AC50 [10]: 15.9 µM (active)

CN(C)C(=O)c1cccc(-c2ccc([C@H]3[C@@H](CO)N4CCCCN(C(=O)C5CCC5)C[C@@H]34)cc2)c1
AC50 [11]: 1.06 µM (active)

Cc1cccc(C(=O)Nc2cccc(NC(=O)c3ccncc3)c2)c1
IC50 [12]: 0.162 µM (active)
IC50 [5]: 2.14 µM (active)

O=C(CCNC(=O)c1ccc(Cl)c(Cl)c1)N[C@@H]1CCCc2ccccc21
AC50 [13]: 3.34 µM (active)
AC50 [14]: 26 µM (active)

O=C(CCCCCCC(=O)Nc1ccccc1)NO [VORINOSTAT]
AC50 [15]: 1.75 µM (active)
IC50 [16]: 0.747 µM (active)
AC50 [17]: 0.933 µM (active)
IC50 [18]: > 67.6 µM (inactive)
AbsAC35_uM [19]: 0.468 µM
